# Data: US20190142971A1, “FORMULATION AND DELIVERY OF MODIFIED NUCLEOSIDE, NUCLEOTIDE, AND NUCLEIC ACID COMPOSITIONS” (ModernaTX, Inc., priority 2013, published 2019)
# B1: unmodified G-CSF mRNA: G-CSF mRNA (SEQ ID NO: 4) with natural NTPs, Cap1 (nucleic acid)
# chain: GGGAAAUAAGAGAGAAAAGAAGAGUAAGAAGAAAUAUAAGAGCCACCAUGGCCGGUCCCGCGACCCAAAGCCCCAUGAAACUUAUGGCCCUGCAGUUGCUGCUUUGGCACUCGGCCCUCUGGACAGUCCAAGAAGCGACUCCUCUCGGACCUGCCUCAUCGUUGCCGCAGUCAUUCCUUUUGAAGUGUCUGGAGCAGGUGCGAAAGAUUCAGGGCGAUGGAGCCGCACUCCAAGAGAAGCUCUGCGCGACAUACAAACUUUGCCAUCCCGAGGAGCUCGUACUGCUCGGGCACAGCUUGGGGAUUCCCUGGGCUCCUCUCUCGUCCUGUCCGUCGCAGGCUUUGCAGUUGGCAGGGUGCCUUUCCCAGCUCCACUCCGGUUUGUUCUUGUAUCAGGGACUGCUGCAAGCCCUUGAGGGAAUCUCGCCAGAAUUGGGCCCGACGCUGGACACGUUGCAGCUCGACGUGGCGGAUUUCGCAACAACCAUCUGGCAGCAGAUGGAGGAACUGGGGAUGGCACCCGCGCUGCAGCCCACGCAGGGGGCAAUGCCGGCCUUUGCGUCCGCGUUUCAGCGCAGGGCGGGUGGAGUCCUCGUAGCGAGCCACCUUCAAUCAUUUUUGGAAGUCUCGUACCGGGUGCUGAGACAUCUUGCGCAGCCGUGAAGCGCUGCCUUCUGCGGGGCUUGCCUUCUGGCCAUGCCCUUCUUCUCUCCCUUGCACCUGUACCUCUUGGUCUUUGAAUAAAGCCUGAGUAGGAAG
# modifications: Cap1
# What was measured:
# [1] = test system: HeLa cells; assay: Example 75: chemical modifications of luciferase mRNA, RLU (Table 114); assay type: cell-based; conditions: 83 ng luciferase mRNA, 18 to 22 hours
# Procedure: The day before transfection, 20,000 HeLa cells (ATCC no. CCL-2; Manassas, Va.) were harvested by treatment with Trypsin-EDTA solution (Life Technologies, Grand Island, N.Y.) and seeded in a total volume of 100 ul EMEM medium (supplemented with 10% FCS and 1× Glutamax) per well in a 96-well cell culture plate (Corning, Manassas, Va.). The cells were grown at 37° C. in 5% CO2 atmosphere overnight. […] Lipofectamine 2000 (LifeTechnologies, Grand Island, N.Y.) was used as transfection reagent and 0.2 ul were diluted in 10 ul final volume of OPTI-MEM. After 5 minutes of incubation at room temperature, both solutions were combined and incubated an additional 15 minute at room temperature. Then the 20 ul combined solution was added to the 100 ul cell culture medium containing the HeLa cells and incubated at room temperature.
# After 18 to 22 hours of incubation cells expressing luciferase were lysed with 100 ul of Passive Lysis Buffer (Promega, Madison, Wis.) according to manufacturer instructions. Aliquots of the lysates were transferred to white opaque polystyrene 96-well plates (Corning, Manassas, Va.) and combined with 100 ul complete luciferase assay solution (Promega, Madison, Wis.). The lysate volumes were adjusted or diluted until no more than 2 mio relative light units (RLU) per well were detected for the strongest signal producing samples and the RLUs for each chemistry tested are shown in Table 114. The plate reader was a BioTek Synergy H1 (BioTek, Winooski, Vt.). The background signal of the plates without reagent was about 200 relative light units per well.
# [2] = test system: Balb-C mice; assay: Example 88: chemically modified luciferase mRNA in PBS IM, SC, flux (Tables 136, 137); assay type: in vivo; conditions: luciferase mRNA in PBS (pH 7.4), 2.5 mg/kg
# Procedure: Twenty minutes prior to imaging, mice were injected intraperitoneally with a D-luciferin solution at 150 mg/kg. Animals were then anesthetized and images were acquired with an IVIS Lumina II imaging system (Perkin Elmer). Bioluminescence was measured as total flux (photons/second) of the entire mouse. The mice were imaged at 2 hours, 8 hours and 24 hours. […] The background signal was 3.84E+05 (p/s).
# [3] = test system: HEK293A; assay: Example 44: signal sequence exchange, secreted G-CSF ELISA (Table 70); assay type: cell-based; conditions: 293A, 250 ng mRNA, Lipofectamine 2000, supernatant 24 hrs
# Source text: (§1) These variants included the G-CSF constructs encoding either the wild-type N terminal secretory signal peptide sequence ([…]; SEQ ID NO: 19), no secretory signal peptide sequence, or secretory signal peptide sequences taken from other mRNAs. These included sequences where the wild type GCSF signal peptide sequence was replaced with the signal peptide sequence of either: human α-1-anti trypsin (AAT) ([…]; SEQ ID NO: 20), human Factor IX (FIX) ([…]; SEQ ID NO: 21), human Prolactin (Prolac) ([…]; SEQ ID NO: 22), or human Albumin (Alb) ([…]; SEQ ID NO: 23).
# (§2) 250 ng of modified mRNA encoding each G-CSF variant was transfected into HEK293A (293A in the table), mouse myoblast (MM in the table) (C2C12, CRL-1772, ATCC) and rat myoblast (RM in the table) (L6 line, CRL-1458, ATCC) cell lines in a 24 well plate using 1 ul of Lipofectamine 2000 (Life Technologies), each well containing 300,000 cells. […] The data shown in Table 70 reveal that cells transfected with G-CSF mmRNA encoding the Albumin signal peptide secrete at least 12 fold more G-CSF protein than its wild type counterpart.
# [4] = test system: mouse myoblast (C2C12); assay: as above; assay type: cell-based; conditions: MM (mouse myoblast C2C12), 250 ng mRNA, supernatant 24 hrs
# Source text: as §1, §2
# [5] = test system: rat myoblast (L6 line); assay: as above; assay type: cell-based; conditions: RM (rat myoblast L6), 250 ng mRNA, supernatant 24 hrs
# Source text: as §1, §2
# [6] = Example 61: storage stability of G-CSF mRNA, gel electrophoresis (Bio-Rad EXPERION); assay type: physicochemical
# Procedure: Stability experiments were conducted to obtain a better understanding of storage conditions to retain the integrity of modified RNA. […] After the mRNA had been stored for 0 hours, 2 hours, 6 hours, 24 hours, 48 hours, 5 days and 14 days, the mRNA was analyzed by gel electrophoresis using a Bio-Rad EXPERION™ system. The modified, unmodified and lipoplexed G-CSF mRNA was also stored in RNASTABLE® (Biomatrica, Inc. San Diego, Calif.) at 40° C. or water at −80° C. or 40° C. for 35 days before being analyzed by gel electrophoresis.
# mRNA samples stored at 4° C., 25° C. and 37° C. were stored in 1×TE buffer or the formulation buffer (150 mM sodium chloride, 2 mM calcium chloride, 2 mM phosphate, 0.5 mM EDTA at a pH of 6.5). The mRNA stored at 4° C. was stable to at least 60 days in both the TE and formulation buffer. At 25° C. the mRNA in formulation buffer was stable out to 14 days and the TE buffer was stable out to at least 6 days. Storage of mRNA in the formulation buffer at 37° C. was stable to 6 days compared to the TE buffer which was stable only until 4 days.
# [7] = test system: BALB/C mice; assay: Example 59: G-CSF mRNA IM in mice, serum human G-CSF and mouse IFN-alpha ELISA (Table 93); assay type: in vivo
# [8] = test system: BJ fibroblasts
# [9] = test system: mice; assay: Example 41: IV lipoplexed G-CSF mRNA in mice, neutrophil count (Table 66); assay type: in vivo; conditions: IV 10% lipoplex, 50 ug at days 0, 2, 4; day 5
# Procedure: Neutrophils were measured at days 1, 5 and 8. Controls included non-specific mammalian RNA or the formulation buffer alone (F.Buffer). The mice were bled at days 1, 5 and 8 to determine the effect of mRNA-encoded human G-CSF to increase neutrophil count. The dosing regimen is shown in Table 66 as are the resulting neutrophil counts (thousands/uL; K/uL).
# [10] = test system: human PBMC; assay: Example 45: PBMC transfection, IFN-alpha ELISA (Table 72); assay type: cell-based
# Procedure: The plates were then incubated at 37 C.
# Each condition was done in duplicate.
# Shown in Tables 71 and 72 are the average from 2 separate PBMC donors of the G-CSF and IFN-alpha production over time as measured by specific ELISA.
# [11] = I.M., 200 ug/mouse (R848 75 ug/mouse), 50 ul, 8 hours after dosing
molecule,measurement,setting,value
5-methylcytosine and pseudouridine,RLU,[1],1601234 RLU
"COc1cn([C@@H]2O[C@H](CO)[C@@H](O)[C@H]2O)c(=O)[nH]c1=O [Formulation 5-methoxyuridine, 5-methoxyuridine]","Flux, Intramuscular Administration",[2]; 2 hours,4.93E+06 p/s
same,"Flux, Intramuscular Administration",[2]; 8 hours,1.80E+07 p/s
same,"Flux, Intramuscular Administration",[2]; 24 hours,4.53E+07 p/s
same,"Flux, Subcutaneous Administration",[2]; 2 hours,7.10E+06 p/s
same,"Flux, Subcutaneous Administration",[2]; 8 hours,9.38E+06 p/s
same,"Flux, Subcutaneous Administration",[2]; 24 hours,1.32E+07 p/s
"CC(=O)Nc1ccn([C@@H]2O[C@H](CO)[C@@H](O)[C@H]2O)c(=O)n1 [Formulation N4-acetylcytidine, N4-acetylcytidine]","Flux, Intramuscular Administration",[2]; 2 hours,1.32E+07 p/s
same,"Flux, Intramuscular Administration",[2]; 8 hours,2.15E+07 p/s
same,"Flux, Intramuscular Administration",[2]; 24 hours,4.01E+07 p/s
same,"Flux, Subcutaneous Administration",[2]; 2 hours,3.07E+07 p/s
same,"Flux, Subcutaneous Administration",[2]; 8 hours,1.23E+07 p/s
same,"Flux, Subcutaneous Administration",[2]; 24 hours,1.28E+07 p/s
O=c1[nH]cc([C@@H]2O[C@H](CO)[C@@H](O)[C@H]2O)c(=O)[nH]1 [Pseudouridine],RLU,[1],140234 RLU
"O=c1[nH]c(=O)n([C@@H]2O[C@H](CO)[C@@H](O)[C@H]2O)cc1Br [Sample 5-Bromouridine, 5-Bromouridine]",RLU,[1],6787 RLU
"COc1cn([C@@H]2O[C@H](CO)[C@@H](O)[C@H]2O)c(=O)[nH]c1=O [Sample 5-methoxyuridine, 5-methoxyuridine]",RLU,[1],219657 RLU
"Cn1cc([C@@H]2O[C@H](CO)[C@@H](O)[C@H]2O)c(=O)[nH]c1=O [Sample N1-methylpseudouridine, N1-methylpseudouridine]",RLU,[1],3068261 RLU
"CC(=O)Nc1ccn([C@@H]2O[C@H](CO)[C@@H](O)[C@H]2O)c(=O)n1 [Sample N4-Acetylcytidine, N4-Acetylcytidine]",RLU,[1],1073251 RLU
Albumin,secreted G-CSF protein,[3],122050 pg/mL
same,secreted G-CSF protein,[4],81050 pg/mL
same,secreted G-CSF protein,[5],173300 pg/mL
Prolactin,secreted G-CSF protein,[3],7875 pg/mL
same,secreted G-CSF protein,[4],1525 pg/mL
same,secreted G-CSF protein,[5],9800 pg/mL
α-1-anti trypsin,secreted G-CSF protein,[3],9950 pg/mL
same,secreted G-CSF protein,[4],5000 pg/mL
same,secreted G-CSF protein,[5],8475 pg/mL
B1,freeze/thaw cycles tolerated,[6],12 cycles
same,stable out to,[6]; stored at 25° C.,48 h
same,stable out to,[6]; stored at 37° C.,6 h
same,stable out to,[6]; stored at 50° C.,2 h
same,Protein: Cytokine Ratio (PC Ratio),[7]; G-CSF / IFN-alpha,9
same,"G-CSF protein (human, serum)",[7]; [11],605.6 pg/mL
same,"IFN-alpha expression (mouse, serum)",[7]; [11],67.01 pg/mL
same,PC Ratio (Protein: Cytokine Ratio),"[7]; I.M., 200 ug/mouse (R848 75 ug/mouse), 8 hours after dosing",9
same,human G-CSF expression in mouse serum,"[7]; IM, 8 hours",resulted in human G-CSF expression in mouse serum
same,mouse IFN-alpha in the serum (cytokine response),"[7]; IM, 8 hours",robust cytokine response
same,"time to cytokine response (IFN-beta, IL-6)",[8],after one day
same,increase in neutrophil count above control,[9],no pharmacologic effect
same,IFN-alpha / cytokine production,[10],substantial IFN-alpha production
